The source of these data is patent US12485079B2, “Compositions and methods relating to pigmentation” (Alastin Skincare, Inc., priority 2020, dated 2025).

Series [1] has as its system carrageenan-induced inflammation. The following applies: rats; cited from earlier work.
The test system of series [2] is UV-B-induced hyperpigmentation. To be noted: topical application for 4 weeks, mice skin; cited from earlier work.
The subject of series [3] is pigmented reconstructed epidermis. The following applies: cited from earlier work.
In series [4] the test system is hTERT-immortalized dermal melanocytes. As to the kind of experiment: Melanocyte assay, daily inspection of morphology and survival (Example 6). To be noted: both concentrations of the compound.
Method: (§4) Melanocytes were initially plated in 6-well tissue culture plate (1.5×10^3 cells per well) in melanocyte growth media (Dermal Cell Basal Medium (ATCC® PCS-200-030 supplemented with Melanocyte Growth Kit (ATCC® PCS-200-041). Melanocytes were then expanded into 10 cm tissue culture plates at concentrations recommended by ATCC. The cells appear to fully adhere to the plate/dish while culturing with a webbed morphology. Cells were cultured at 37° C. 5% CO2 incubator.
(§5) Once the melanocytes were 100% confluent in 6-well plates, the melanocyte growth media was removed and the melanocytes were treated with media containing the above compounds; duplicate wells for each compound/concentration listed above. The duplicate vehicle control wells were fed melanocyte growth media only or melanocyte growth media with DMSO (10 uL per 10 mL melanocyte growth media).
(§6) The cells were fed the appropriate media for the next 5 days. Each day, the cells were inspected for morphology.
Series [5] has the same test system. To be noted: human.
Method: as §4, §5, §6
Series [6] deals with melanocytes (melanin production). As to the kind of experiment: In vitro melanocyte comparative analysis via absorbance readings (Example 4). The format is cell-based. To be noted: for regulation of melanogenesis (decrease of absorption = decreased melanin formation): Table 8; for Absorbance 405 nm / Absorbance 490 nm / Absorbance 492 nm: melanocyte lysates. How it is done:
Melanocytes were cultured in 6-well plates containing growth media. Once confluent, 2 concentrations of each of the 10 compounds were added to the cells in triplicate wells for 4 days. There were a total of eleven 6-well plates, one for each compound treatment and one for the vehicle control. Absorbance readings were taken on the lysates prepared for each well of the 6-well plates, normalizing for cells counts. […] Additional validation was carried out using MSH addition to media to confirm increased stimulation of melanin production. The following compounds used in this study are seen in Table 7.

Series [7] relates to melanogenic genes. Nature of the series: Cell line melanogenic gene activity testing, overall conclusion. The format is cell-based, human. The following applies: conclusion over melanocytes, keratinocytes, HUVECs. On the procedure: (§1) Four cell types associated with pigmentation pathways-melanocytes, keratinocytes, fibroblasts and endothelial (HUVEC) cells-were analyzed for gene expression.
(§2) To simulate the UV stimulatory pigmentation pathway process, melanocytes were pre-treated with PGE2, a normal direct consequence of UV light exposure usually emanating from exposed keratinocytes. After the 48 hour attachment culture, these melanocytes were induced with 10 uM PGE2 in melanocyte media for 24 hrs. The four primary human adult dermal cell lines were cultured and plated in well plates in triplicate and then treated with 11 different compound treatments (plus DMSO control). After 48 hours of attachment culture, the remaining fibroblasts, HUVECs and keratinocytes were treated with the test compounds listed in Table 6.
(§3) After 24 hours of compound exposure, RNA lysate preparation was carried out and samples were shipped to MedGenome for RNA extraction, library construction and sequencing to 25M paired end 100 bp reads per sample. Library prep and sequencing was completed at MedGenome.

Series [8] has as its system SCF, LIF, POMC, endothelin genes, PGE2, NGF in keratinocytes. Nature of the series: Gene expression study (RNA sequencing) in keratinocytes. The format is cell-based, human. The following applies: 24 hours of compound exposure. On the procedure:
as §1, §2, §3

Series [9] deals with melanogenic genes in melanocytes. Nature of the series: Gene expression study (RNA sequencing) in PGE2-induced melanocytes. The format is cell-based, human. How it is done:
as §1, §2, §3

Series [10] deals with MITF. Nature of the series: In vitro MITF gene expression test in cultured fibroblasts. The format is cell-based. To be noted: 48 hours. On the procedure:
Microphthalmia-associated transcription factor (MITF) is a master regulator of pigmentation and melanin transfer and a potential new target for hyperpigmentation and melanoma. In vitro MITF gene expression tests were carried out to ascertain differences between individual peptides (tripeptide-1 and hexapeptide-12) and their combination in terms of MITF downregulation.
Specifically, the tests were conducted by culturing fibroblasts and then adding tripeptide-1, hexapeptide-12, or a combination of both. After 48 hours, MITF gene expression was analyzed.

Series [11] deals with PMEL, tyrosinase genes, MC1/4R, EDNRB, MITF, ERK1/2, JNK, AKT1. Nature of the series: Gene expression studies of Example 5. The format is cell-based. From the text:
The methods similar to Examples 3-4 were used to measure expression of PMEL, tyrosinase genes, MC1/4R, EDNRB, MITF, ERK1/2, JNK, and ANKT1.
FIGS. 10A-10D illustrates the expression of PMEL (FIG. 10A), Tyrosinase genes (FIG. 10B), MC1/4R (FIG. 10C), and EDNRB (FIG. 10D) after treatment of endothelial cells with lactoferrin (Lacto), peptide derived from lactoferrin (TCV), hexapeptide-12 (Hex12), tripeptide-1 and hexapeptide-12 (TriHex), hexapeptide-11 (Hex11), tranexamic acid (Tran acid) octapeptide (Octa), phosphatidylserine (phos), Cannabidiol (CBD), and all (total).
MITF is regulated by phosphorylation. Specifically, the MAPK and Akt pathways are known to phosphorylate MITF at certain sites. FIGS. 12A-12C illustrate the expression of ERK1/2 (MAPK3/MAPK1) (FIG. 12A), JNK (FIG. 12B), AKT1 (FIG. 12C) after treatment of endothelial cells with lactoferrin (Lacto), peptide derived from lactoferrin (TCV), hexapeptide-12 (Hex12), tripeptide-1 and hexapeptide-12 (TriHex), hexapeptide-11 (Hex11), octapeptide (Octa), phosphatidylserine (phos), Cannabidiol (CBD), and all (total).

Series [12] deals with EDN1 and other melanogenic genes in HUVECs. As to the kind of experiment: Gene expression study (RNA sequencing) in HUVECs. The format is cell-based, human. To be noted: 24 hours of compound exposure. On the procedure:
as §1, §2, §3

As for `C=C(C)[C@@H]1CCC(C)=C[C@H]1c1c(O)cc(CCCCC)cc1O` [CBD, Cannabidiol], in [1], the “PGE2, nitric oxide (NO), and malondialdehyde production, together with COX activity” value is given as “reduced”.

On to `O=C(O)c1cc(O)c(O)c(O)c1` [GA, Gallic acid], for which, in [2], the UV-B-induced hyperpigmentation entry was “significantly rescued”.

In the case of `COc1ccc([C@@H]2CC(=O)c3c(O)cc(O[C@@H]4O[C@H](CO[C@@H]5O[C@@H](C)[C@H](O)[C@@H](O)[C@H]5O)[C@@H](O)[C@H](O)[C@H]4O)cc3O2)cc1O` [Hesperidin], in [3], the skin lightening effect entry is listed as “showed skin lightening effect”.

Turning to `C/C=C1/[C@H](O[C@@H]2O[C@H](CO)[C@@H](O)[C@H](O)[C@H]2O)OC=C(C(=O)OC)[C@H]1CC(=O)OCCc1ccc(O)c(O)c1` [Oleuropein], the “time post-initial dosing at which melanocytes started dying” value in [4] was 24 h. The “time post-initial dosing at which all or nearly all melanocytes were dead” value in series [5] worked out at 72 h.

As to `Oc1ccc2c(c1)OCO2` [Sesamol], in series [6] (melanocytes), the “regulation of melanogenesis (decrease of absorption = decreased melanin formation)” value is given as “Regulation of melanogenesis was also observed”.

Take `NC[C@H]1CC[C@H](C(=O)O)CC1` [Tranexamic Acid, Tranexamic acid, reference compound]: in [6] (melanocytes), the “regulation of melanogenesis (decrease of absorption = decreased melanin formation)” value was “Regulation of melanogenesis was also observed”.

In the case of Hexapeptide-11 [HEX-11], the “regulation of melanogenesis (decrease of absorption = decreased melanin formation)” value in series [6] (melanocytes) is reported as “Regulation of melanogenesis was observed”. In addition, the “effects on melanogenesis activity” value in series [7] is recorded as “significant effects on melanogenesis activity”. In addition, the “melanogenesis activity (FIGS. 6A-6F, FIG. 7)” value in [8] was “active ingredient in melanogenesis activity”.

As to Hexapeptide-12 [HEX-12], in series [9] (melanocytes pre-treated with 10 uM PGE2, 24 hours of compound exposure), the “melanogenic activity (FIGS. 3A-3D)” value is on record as “particularly dominant in melanogenic activity”. Also, in series [9] (melanocytes, 24 hours of compound exposure), the “expression of melanogenic genes (FIG. 4, FIG. 5)” value is recorded as “downregulation of melanogenic genes”. Besides, in series [6] (2.9 ug/mL), the “Absorbance 405 nm” value stood at 1.32, the “Absorbance 490 nm” value came to 0.94 and the “Absorbance 492 nm” value amounted to 0.64. Moreover, in series [6] (4.9 ug/mL), the “Absorbance 405 nm” value amounted to 0.96, the “Absorbance 490 nm” value stood at 0.64 and the “Absorbance 492 nm” value is reported as 0.46. Besides, in series [6] (melanocytes), the “stimulation of melanin production (model validation)” value is “decreased stimulation” and the “regulation of melanogenesis (decrease of absorption = decreased melanin formation)” value was “Regulation of melanogenesis was observed”. Also, the MITF gene expression in series [10] (80 ppm Hexapeptide, negative = downregulation) is given as −1.16. In series [11] (after treatment of endothelial cells), the “melanogenic activity (expression of PMEL, Tyrosinase genes, MC1/4R, EDNRB; FIGS. 10A-10D)” value is recorded as “robust melanogenic activity”. Besides, the “effects on melanogenic activity (kinase expression linked to decreased MITF expression)” value in series [11] (conclusion of Example 5) was “significant effects”. Also, the “effects on melanogenesis activity” value in series [7] is reported as “significant effects on melanogenesis activity”.

As to Phosphatidylserine, the “activity on EDN1 and other melanogenic genes (FIG. 9)” value in series [12] is “potent activity”. Further, the “regulation of melanogenesis (decrease of absorption = decreased melanin formation)” value in series [6] (melanocytes) is “Regulation of melanogenesis was observed”. In series [7], the “effects on melanogenesis activity” value is on record as “significant effects on melanogenesis activity”.

Regarding Tripeptide-1, the MITF gene expression in series [10] (120 xppm Tripeptide, positive = upregulation) is 1.72; in series [10] (120 xppm Tripeptide, positive = upregulation, listed as tripeptide-1) it was “+1.72”.
